From article PMC7153937, “Imipridone Anticancer Compounds Ectopically Activate the ClpP Protease and Represent a New Scaffold for Antibiotic Development” (Genetics, 2020)

Target: T1, S. aureus ClpP (Staphylococcus aureus, UniProt Q2G036)
T1 construct: S. aureus ClpP expressed from the GAL1 promoter in S. cerevisiae
Assay: yeast surrogate genetic assay: ClpP-dependent growth inhibition vs. empty vector
Format: cell-based

T1 sequence (Q2G036 whole entry): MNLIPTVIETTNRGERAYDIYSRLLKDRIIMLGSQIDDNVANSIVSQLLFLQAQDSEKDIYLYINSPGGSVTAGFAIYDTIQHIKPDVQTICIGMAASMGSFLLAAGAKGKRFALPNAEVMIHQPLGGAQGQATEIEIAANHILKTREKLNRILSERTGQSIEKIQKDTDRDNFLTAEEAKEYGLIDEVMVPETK

Molecule `O=C1C2=C(CCN(Cc3ccccc3)C2)N2CCN=C2N1Cc1ccc(C(F)(F)F)cc1` [ONC212] has an IC50 of 5.4 µM.
